Experimental data as given in patent US20180153872A1, “HETEROARYL CARBONITRILES FOR THE TREATMENT OF DISEASE” (OPKO Health, Inc., priority 2015, published 2018).

Assays:
NK1 receptors = NK1 receptors (Mus musculus, UniProt P30548); assay: NK1 receptor radioligand binding, mouse; conditions: no unit, Ki in nM
Method: SCH900978 was also tested for NK2 and NK3 receptor activity and in 106 other receptors, transporters, enzymes and ion channels and had greater than 1000 fold lower affinity for these than for the NK1 receptor.

NK1 receptor = NK1 receptor (Meriones unguiculatus, UniProt Q5DUB1); assay: Gerbil foot thumping (in vivo pharmacodynamic model of NK1 receptor activity); design: from tissue; host or cells: living gerbil (central NK1 receptors)
Description: Intracerebroventricular administration of NK1 receptor agonists to gerbils induces vigorous thumping in the hind feet. This response can be blocked by NK1 receptor antagonists.

Sequence of NK1 receptor (Q5DUB1 whole entry): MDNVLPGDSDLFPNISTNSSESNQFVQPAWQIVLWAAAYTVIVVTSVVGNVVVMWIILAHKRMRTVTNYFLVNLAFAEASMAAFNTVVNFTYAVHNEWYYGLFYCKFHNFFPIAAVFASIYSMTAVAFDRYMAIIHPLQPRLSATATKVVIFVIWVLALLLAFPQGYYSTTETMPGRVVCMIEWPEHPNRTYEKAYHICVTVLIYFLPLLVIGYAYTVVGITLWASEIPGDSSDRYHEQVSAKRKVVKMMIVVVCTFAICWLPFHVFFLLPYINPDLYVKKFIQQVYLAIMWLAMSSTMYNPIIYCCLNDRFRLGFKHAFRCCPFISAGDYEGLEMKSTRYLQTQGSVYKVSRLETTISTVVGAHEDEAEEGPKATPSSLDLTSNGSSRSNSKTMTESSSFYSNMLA
Sequence of NK1 receptors (P30548 whole entry): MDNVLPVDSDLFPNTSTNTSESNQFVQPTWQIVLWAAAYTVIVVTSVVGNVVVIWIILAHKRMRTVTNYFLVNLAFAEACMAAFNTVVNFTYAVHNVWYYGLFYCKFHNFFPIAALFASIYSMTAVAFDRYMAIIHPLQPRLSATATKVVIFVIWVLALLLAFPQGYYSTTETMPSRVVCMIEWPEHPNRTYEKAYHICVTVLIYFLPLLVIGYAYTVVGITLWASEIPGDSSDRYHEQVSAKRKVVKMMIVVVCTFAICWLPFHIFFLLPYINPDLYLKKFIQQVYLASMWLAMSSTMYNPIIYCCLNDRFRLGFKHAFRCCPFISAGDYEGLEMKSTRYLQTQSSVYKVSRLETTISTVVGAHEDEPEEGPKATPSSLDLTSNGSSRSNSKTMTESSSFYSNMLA

C[C@@H](OC[C@@]1(c2ccccc2)CC[C@](C#N)(n2cn[nH]c2=O)CN1)c1cc(C(F)(F)F)cc(C(F)(F)F)c1 [Compound 42, (3 S,6S)-6-({(1R)-1-[3,5-bis(trifluoromethyl)phenyl]ethoxy}methyl)-3-(5-oxo-1,5dihydro-4H-1,2,4-triazol-4-yl)-6-phenylpiperidine-3-carbonitrile]
Ki (NK1 receptors): 0.76 nM
duration of significant inhibition of NK1 agonist-induced foot thumping (NK1 receptor; 0.3 mg/kg oral dose): up to 48 hours
ED90, effective dose for 90% inhibition of foot thumping (NK1 receptor; oral, six hours before testing, GR 73632-induced): 0.2 mg/kg
